Literature values, collected in patent publication US20240315972A1, “PROTEIN CONTAINING BIO-ACTIVE COMPOSITIONS COMPRISING CELLULOSE MICROPARTICLE CARRIERS” (priority 2021, published 2024).

Tests used:
large native proteins = conditions: versus its mesophilic analogue
[1] = tested on: herpes simplex virus type 1 (HSV-1); conditions: in vitro
[2] = tested on: respiratory syncytial virus (RSV); conditions: in vitro
[3] = tested on: interferon (IFN) signaling; conditions: 5 BAEE U/mL (4.5 μg/mL porcine trypsin)

Trypsin
Effectiveness in degrading large native proteins relative to mesophilic analogue (large native proteins): 3-12 times | Efficacy against HSV-1 [1]: high efficacy | Efficacy against RSV [2]: high efficacy | Effect on interferon (IFN) signaling [3]: strongly inhibited
